Measurements reported in US20240301409A1, “Chemically Modified Small Activating RNA” (RACTIGEN THERAPEUTICS, priority 2021, published 2024).

Test system: T24 cells
Experiment: Cellular proliferation assay (CCK8) in T24 cells, alone and combined with Mitomycin C or valrubicin
Format: cell-based, human
In short: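 Cells transfected with saRNA RAG1-40-31 (0.1–50 nM) for 24 h, then Mitomycin C or valrubicin (1–10000 nM) added in paired concentrations; single-agent saRNA at 10 nM for 72 h. Viability by CCK8 absorbance at 450 nm after 1 h at 37 °C, as % of blank transfection control.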

Question: Which results are given for “RAG1-40-31: saRNA duplex: sense fCfCAACUCAUUCUCCAAG*U*C (SEQ ID NO 16); antisense U*A*fCfUfUGGAGAAfUGAGfUfUGG*fC*A (SEQ ID NO 12) (sense CCAACUCAUUCUCCAAGUC; antisense UACUUGGAGAAUGAGUUGGCA; 2'-F and phosphorothioate modifications; modified_base (1)..(2) (1,2)=2′-fluoro; modified_base (17)..(19) (17,18,19)=phosphorothioate (PS) backbone modification; modified_base (2)..(21) (2,3,19,20,21)=phosphorothioate (PS) backbone modification; modified_base (3)..(20) (3,4,5,12,16,17,20)=2′-fluoro)”?
Answer: Relative proliferation proportion of T24 cells (RAG1-40-31 50 nM + valrubicin 1000 nm): 10.9%; Relative proliferation proportion of T24 cells (RAG1-40-31 50 nM + valrubicin 10000 nm): 3.1%; Relative proliferation proportion of T24 cells (RAG1-40-31 50 nM, Control (no MMC)): 14.7%; Relative proliferation proportion of T24 cells (RAG1-40-31 50 nM, Control (no valrubicin)): 13.8%; Combination Index (CI) (T24 cells, RAG1-40-31 0.1 nM + MMC 1 nM): 0.42; Combination Index (CI) (T24 cells, RAG1-40-31 0.1 nM + MMC 10 nM): 1.59; Combination Index (CI) (T24 cells, RAG1-40-31 0.1 nM + MMC 100 nM): 0.64; Combination Index (CI) (T24 cells, RAG1-40-31 0.1 nM + MMC 1000 nM): 0.49; Combination Index (CI) (T24 cells, RAG1-40-31 0.1 nM + MMC 10000 nM): 1.05; Combination Index (CI) (T24 cells, RAG1-40-31 0.1 nM + Valrubicin 10000 nM): 0.38; Combination Index (CI) (T24 cells, RAG1-40-31 0.1 nM + valrubicin 1 nM): 1.9; Combination Index (CI) (T24 cells, RAG1-40-31 0.1 nM + valrubicin 10 nM): 17.16; Combination Index (CI) (T24 cells, RAG1-40-31 0.1 nM + valrubicin 100 nM): 11.04; Combination Index (CI) (T24 cells, RAG1-40-31 0.1 nM + valrubicin 1000 nM): 1.48; Combination Index (CI) (T24 cells, RAG1-40-31 0.5 nM + MMC 1 nM): 0.97; Combination Index (CI) (T24 cells, RAG1-40-31 0.5 nM + MMC 10 nM): 1.40; Combination Index (CI) (T24 cells, RAG1-40-31 0.5 nM + MMC 100 nM): 0.67; Combination Index (CI) (T24 cells, RAG1-40-31 0.5 nM + MMC 1000 nM): 0.46; Combination Index (CI) (T24 cells, RAG1-40-31 0.5 nM + MMC 10000 nM): 1.06; Combination Index (CI) (T24 cells, RAG1-40-31 0.5 nM + Valrubicin 10000 nM): 0.4; Combination Index (CI) (T24 cells, RAG1-40-31 0.5 nM + valrubicin 1 nM): 2.71; Combination Index (CI) (T24 cells, RAG1-40-31 0.5 nM + valrubicin 10 nM): 6.02; Combination Index (CI) (T24 cells, RAG1-40-31 0.5 nM + valrubicin 100 nM): 8.68; Combination Index (CI) (T24 cells, RAG1-40-31 0.5 nM + valrubicin 1000 nM): 0.92; Combination Index (CI) (T24 cells, RAG1-40-31 1 nM + MMC 1 nM): 0.96; Combination Index (CI) (T24 cells, RAG1-40-31 1 nM + MMC 10 nM): 0.88; Combination Index (CI) (T24 cells, RAG1-40-31 1 nM + MMC 100 nM): 0.69; Combination Index (CI) (T24 cells, RAG1-40-31 1 nM + MMC 1000 nM): 0.41; Combination Index (CI) (T24 cells, RAG1-40-31 1 nM + MMC 10000 nM): 0.84; Combination Index (CI) (T24 cells, RAG1-40-31 1 nM + Valrubicin 10000 nM): 0.33; Combination Index (CI) (T24 cells, RAG1-40-31 1 nM + valrubicin 1 nM): 1.23; Combination Index (CI) (T24 cells, RAG1-40-31 1 nM + valrubicin 10 nM): 0.92; Combination Index (CI) (T24 cells, RAG1-40-31 1 nM + valrubicin 100 nM): 1.02; Combination Index (CI) (T24 cells, RAG1-40-31 1 nM + valrubicin 1000 nM): 0.93; Combination Index (CI) (T24 cells, RAG1-40-31 5 nM + MMC 1 nM): 0.61; Combination Index (CI) (T24 cells, RAG1-40-31 5 nM + MMC 10 nM): 0.60; Combination Index (CI) (T24 cells, RAG1-40-31 5 nM + MMC 100 nM): 0.45; Combination Index (CI) (T24 cells, RAG1-40-31 5 nM + MMC 1000 nM): 0.24; Combination Index (CI) (T24 cells, RAG1-40-31 5 nM + MMC 10000 nM): 0.46; Combination Index (CI) (T24 cells, RAG1-40-31 5 nM + Valrubicin 10000 nM): 0.12; Combination Index (CI) (T24 cells, RAG1-40-31 5 nM + valrubicin 1 nM): 0.73; Combination Index (CI) (T24 cells, RAG1-40-31 5 nM + valrubicin 10 nM): 0.59; Combination Index (CI) (T24 cells, RAG1-40-31 5 nM + valrubicin 100 nM): 0.99; Combination Index (CI) (T24 cells, RAG1-40-31 5 nM + valrubicin 1000 nM): 0.47; Combination Index (CI) (T24 cells, RAG1-40-31 10 nM + MMC 1 nM): 0.52; Combination Index (CI) (T24 cells, RAG1-40-31 10 nM + MMC 10 nM): 0.77; Combination Index (CI) (T24 cells, RAG1-40-31 10 nM + MMC 100 nM): 0.47; Combination Index (CI) (T24 cells, RAG1-40-31 10 nM + MMC 1000 nM): 0.19; Combination Index (CI) (T24 cells, RAG1-40-31 10 nM + MMC 10000 nM): 0.30; Combination Index (CI) (T24 cells, RAG1-40-31 10 nM + Valrubicin 10000 nM): 0.09; Combination Index (CI) (T24 cells, RAG1-40-31 10 nM + valrubicin 1 nM): 0.82; Combination Index (CI) (T24 cells, RAG1-40-31 10 nM + valrubicin 10 nM): 0.62; Combination Index (CI) (T24 cells, RAG1-40-31 10 nM + valrubicin 100 nM): 0.83; Combination Index (CI) (T24 cells, RAG1-40-31 10 nM + valrubicin 1000 nM): 0.63; Combination Index (CI) (T24 cells, RAG1-40-31 25 nM + MMC 1 nM): 0.92; Combination Index (CI) (T24 cells, RAG1-40-31 25 nM + MMC 10 nM): 1.38; Combination Index (CI) (T24 cells, RAG1-40-31 25 nM + MMC 100 nM): 0.73; Combination Index (CI) (T24 cells, RAG1-40-31 25 nM + MMC 1000 nM): 0.28; Combination Index (CI) (T24 cells, RAG1-40-31 25 nM + MMC 10000 nM): 0.36; Combination Index (CI) (T24 cells, RAG1-40-31 25 nM + Valrubicin 10000 nM): 0.1; Combination Index (CI) (T24 cells, RAG1-40-31 25 nM + valrubicin 1 nM): 0.97; Combination Index (CI) (T24 cells, RAG1-40-31 25 nM + valrubicin 10 nM): 1.25; Combination Index (CI) (T24 cells, RAG1-40-31 25 nM + valrubicin 100 nM): 1.25; Combination Index (CI) (T24 cells, RAG1-40-31 25 nM + valrubicin 1000 nM): 0.67; relative proliferation proportions of cells (T24 cells, RAG1-40-31 25 nM and 50 nM + Mitomycin C 1, 10, 100, 1000 and 10000 nM): lower than 21%; relative proliferation proportion of cells (T24 cells, RAG1-40-31 25 nM and 50 nM + valrubicin 1, 10, 100, 1000 and 10000 nM): lower than 21%; Combination Index (CI) (T24 cells, RAG1-40-31 50 nM + MMC 1 nM): 2.59; Combination Index (CI) (T24 cells, RAG1-40-31 50 nM + MMC 10 nM): 2.60; Combination Index (CI) (T24 cells, RAG1-40-31 50 nM + MMC 100 nM): 1.31; Combination Index (CI) (T24 cells, RAG1-40-31 50 nM + MMC 1000 nM): 0.50; Combination Index (CI) (T24 cells, RAG1-40-31 50 nM + MMC 10000 nM): 0.47; Combination Index (CI) (T24 cells, RAG1-40-31 50 nM + Valrubicin 10000 nM): 0.19; Combination Index (CI) (T24 cells, RAG1-40-31 50 nM + valrubicin 1 nM): 2.12; Combination Index (CI) (T24 cells, RAG1-40-31 50 nM + valrubicin 10 nM): 2.3; Combination Index (CI) (T24 cells, RAG1-40-31 50 nM + valrubicin 100 nM): 2.3; Combination Index (CI) (T24 cells, RAG1-40-31 50 nM + valrubicin 1000 nM): 1.04; relative proliferation proportions of cells (T24 cells, RAG1-40-31 0.1-50 nM + Mitomycin C 1000 and 10000 nM): lower than 18%; relative proliferation proportions of cells (T24 cells, RAG1-40-31 0.1-50 nM + valrubicin 1000 nM and 10000 nM): lower than 60%; relative proliferation proportions of cells (T24 cells, RAG1-40-31 5-50 nM + Mitomycin C 1, 10, 100, 1000 and 10000 nM): lower than 40%; relative proliferation proportions of cells (T24 cells, RAG1-40-31 5-50 nM + valrubicin 1, 10, 100, 1000 and 10000 nM): lower than 40%; effect of combined use with Mitomycin C or valrubicin, in words (T24 tumor cells): synergistic effect
